Measured values published in ChEMBL document CHEMBL1201862, “PubChem BioAssay data set” (2004).
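96-well plates; 48 h exposure; 5 concentrations. Endpoints by linear interpolation between flanking doses. Not reached: highest tested concentration assigned. GI50: concentration for 50% inhibition of growth.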 Calls of active or inactive are those of the source. Cut-off read from the data, not from the text of the source: active = GI50 up to about 1.1 µM and inactive = higher.

Experiments:
Assay in all cases: NCI tumour cell line growth inhibition, 48 h
COLO 205 = tested on: COLO 205
HCC 2998 = tested on: HCC 2998
HCT-116 = tested on: HCT-116
HOP-92 = tested on: HOP-92
K562 = tested on: K562
MDA-MB-231 = tested on: MDA-MB-231
MDA-MB-435 = tested on: MDA-MB-435
NCI-H226 = tested on: NCI-H226
PC-3 = tested on: PC-3
SF-539 = tested on: SF-539
SK-MEL-28 = tested on: SK-MEL-28
SN12C = tested on: SN12C
SR = tested on: SR
UACC-257 = tested on: UACC-257
BT-549 = tested on: BT-549
MCF7 = tested on: MCF7
OVCAR-4 = tested on: OVCAR-4
T47D = tested on: T47D
U-251 = tested on: U-251

CCOC(=O)C(C)(C)/C=C\C(Cl)=C(Cl)Cl was tested. Which GI50 (COLO 205) did it give?
Its GI50 is > 100 µM (inactive).

And the GI50 (HCC 2998)?
The GI50 was > 100 µM (inactive).

What about the GI50 (HCT-116) of the same molecule?
The GI50 was > 100 µM (inactive).

What about the GI50 (HOP-92) of the same molecule?
The GI50 was > 100 µM (inactive).

What about the GI50 (K562) of the same molecule?
Its GI50 is > 100 µM (inactive).

And the GI50 (MDA-MB-231)?
Its GI50 is > 100 µM (inactive).

What about the GI50 (MDA-MB-435) of the same molecule?
Its GI50 is > 100 µM (inactive).

And the GI50 (NCI-H226)?
Its GI50 is > 100 µM (inactive).

What about the GI50 (PC-3) of the same molecule?
The GI50 was > 100 µM (inactive).

What about the GI50 (SF-539) of the same molecule?
Its GI50 is > 100 µM (inactive).

And the GI50 (SK-MEL-28)?
The GI50 was > 100 µM (inactive).

And the GI50 (SN12C)?
Its GI50 is > 100 µM (inactive).

And the GI50 (SR)?
Its GI50 is > 100 µM (inactive).

And the GI50 (UACC-257)?
The GI50 was > 100 µM (inactive).

Which results are given for COc1ccc(C2C3=CONC3CC3CCCCC32)cc1 (stereo not given)?
GI50 (BT-549): > 100 µM (inactive); GI50 (HCC 2998): 18.5 µM (inactive); GI50 (HCT-116): 29.8 µM (inactive); GI50 (K562): 39.4 µM (inactive); GI50 (MCF7): 12.8 µM (inactive); GI50 (MDA-MB-435): 47.9 µM (inactive); GI50 (NCI-H226): > 100 µM (inactive); GI50 (OVCAR-4): 50.4 µM (inactive); GI50 (PC-3): 30.6 µM (inactive); GI50 (SK-MEL-28): 68.4 µM (inactive); GI50 (SR): 41.9 µM (inactive); GI50 (T47D): 35.6 µM (inactive); GI50 (U-251): 46 µM (inactive); GI50 (UACC-257): 80.2 µM (inactive)

Which results are given for Cc1c(C#N)c(N)[nH]c(=S)c1C#N?
GI50 (BT-549): > 100 µM (inactive); GI50 (HCC 2998): > 100 µM (inactive); GI50 (HCT-116): > 100 µM (inactive); GI50 (K562): > 100 µM (inactive); GI50 (MCF7): > 100 µM (inactive); GI50 (MDA-MB-231): > 100 µM (inactive); GI50 (NCI-H226): > 100 µM (inactive); GI50 (PC-3): > 100 µM (inactive); GI50 (SF-539): > 100 µM (inactive); GI50 (SK-MEL-28): > 100 µM (inactive); GI50 (SN12C): > 100 µM (inactive); GI50 (SR): > 100 µM (inactive); GI50 (T47D): > 100 µM (inactive); GI50 (U-251): > 100 µM (inactive); GI50 (UACC-257): > 100 µM (inactive)

Which GI50 (BT-549) does the source give for N#Cc1nc(-c2ccccn2)oc1N here?
Its GI50 is > 100 µM (inactive).

And the GI50 (COLO 205)?
The GI50 was > 100 µM (inactive).

And the GI50 (HCC 2998)?
The GI50 was > 100 µM (inactive).

And the GI50 (HCT-116)?
Its GI50 is > 100 µM (inactive).

What about the GI50 (HOP-92) of the same molecule?
Its GI50 is > 100 µM (inactive).

What about the GI50 (K562) of the same molecule?
Its GI50 is > 100 µM (inactive).

And the GI50 (MCF7)?
Its GI50 is > 100 µM (inactive).

What about the GI50 (MDA-MB-231) of the same molecule?
The GI50 was > 100 µM (inactive).

What about the GI50 (MDA-MB-435) of the same molecule?
The GI50 was > 100 µM (inactive).

And the GI50 (NCI-H226)?
Its GI50 is > 100 µM (inactive).

And the GI50 (OVCAR-4)?
The GI50 was > 100 µM (inactive).

What about the GI50 (PC-3) of the same molecule?
Its GI50 is > 100 µM (inactive).

What about the GI50 (SK-MEL-28) of the same molecule?
The GI50 was > 100 µM (inactive).

And the GI50 (SN12C)?
The GI50 was > 100 µM (inactive).

And the GI50 (SR)?
Its GI50 is > 100 µM (inactive).

What about the GI50 (U-251) of the same molecule?
The GI50 was > 100 µM (inactive).

What about the GI50 (UACC-257) of the same molecule?
The GI50 was > 100 µM (inactive).

How did the GI50 (COLO 205) turn out when O=C1OCOC2(CCCC2)C1c1ccccc1 (stereo not given) was run?
The GI50 was > 100 µM (inactive).

And the GI50 (HCC 2998)?
Its GI50 is > 100 µM (inactive).

What about the GI50 (HCT-116) of the same molecule?
The GI50 was > 100 µM (inactive).

What about the GI50 (HOP-92) of the same molecule?
The GI50 was > 100 µM (inactive).

What about the GI50 (K562) of the same molecule?
Its GI50 is > 100 µM (inactive).

What about the GI50 (MDA-MB-231) of the same molecule?
The GI50 was > 100 µM (inactive).

And the GI50 (MDA-MB-435)?
Its GI50 is > 100 µM (inactive).

What about the GI50 (NCI-H226) of the same molecule?
Its GI50 is > 100 µM (inactive).

And the GI50 (OVCAR-4)?
The GI50 was > 100 µM (inactive).

And the GI50 (PC-3)?
Its GI50 is > 100 µM (inactive).

And the GI50 (SF-539)?
Its GI50 is > 100 µM (inactive).

And the GI50 (SK-MEL-28)?
Its GI50 is > 100 µM (inactive).

And the GI50 (SN12C)?
Its GI50 is > 100 µM (inactive).

What about the GI50 (SR) of the same molecule?
Its GI50 is > 100 µM (inactive).

What about the GI50 (T47D) of the same molecule?
Its GI50 is > 100 µM (inactive).

And the GI50 (U-251)?
The GI50 was > 100 µM (inactive).

And the GI50 (UACC-257)?
Its GI50 is > 100 µM (inactive).

For Cc1cccc(-c2nc3c(C(=O)NCCN(C)C)cccc3[nH]2)c1, which GI50 (COLO 205) is on record?
The GI50 was 0.363 µM (active).

What about the GI50 (HCC 2998) of the same molecule?
Its GI50 is 1 µM (active).

What about the GI50 (HCT-116) of the same molecule?
Its GI50 is 0.329 µM (active).

What about the GI50 (HOP-92) of the same molecule?
Its GI50 is 1.28 µM (inactive).

What about the GI50 (K562) of the same molecule?
Its GI50 is 0.863 µM (active).

And the GI50 (NCI-H226)?
Its GI50 is 1.85 µM (inactive).

And the GI50 (OVCAR-4)?
The GI50 was 0.809 µM (active).

And the GI50 (SF-539)?
Its GI50 is 0.724 µM (active).

What about the GI50 (SK-MEL-28) of the same molecule?
Its GI50 is 2.04 µM (inactive).

And the GI50 (SN12C)?
The GI50 was 0.65 µM (active).

And the GI50 (U-251)?
Its GI50 is 1.49 µM (inactive).

What about the GI50 (UACC-257) of the same molecule?
Its GI50 is 1.67 µM (inactive).

How did the GI50 (COLO 205) turn out when Cc1nn(-c2ccccc2)c2nc3c(c(C)nn3-c3ccccc3)c(-c3ccc(C(F)(F)F)cc3)c12 was run?
The GI50 was > 100 µM (inactive).

What about the GI50 (HCC 2998) of the same molecule?
Its GI50 is > 100 µM (inactive).

And the GI50 (HCT-116)?
The GI50 was > 100 µM (inactive).

What about the GI50 (HOP-92) of the same molecule?
Its GI50 is > 100 µM (inactive).

What about the GI50 (K562) of the same molecule?
The GI50 was > 100 µM (inactive).

And the GI50 (MCF7)?
Its GI50 is > 100 µM (inactive).

And the GI50 (MDA-MB-231)?
The GI50 was > 100 µM (inactive).

What about the GI50 (MDA-MB-435) of the same molecule?
The GI50 was > 100 µM (inactive).

And the GI50 (NCI-H226)?
Its GI50 is > 100 µM (inactive).

And the GI50 (OVCAR-4)?
The GI50 was > 100 µM (inactive).

What about the GI50 (PC-3) of the same molecule?
Its GI50 is > 100 µM (inactive).

And the GI50 (SF-539)?
The GI50 was 72.3 µM (inactive).

What about the GI50 (SK-MEL-28) of the same molecule?
Its GI50 is > 100 µM (inactive).

And the GI50 (SN12C)?
The GI50 was > 100 µM (inactive).

What about the GI50 (T47D) of the same molecule?
Its GI50 is > 100 µM (inactive).

And the GI50 (U-251)?
The GI50 was > 100 µM (inactive).

What about the GI50 (UACC-257) of the same molecule?
The GI50 was > 100 µM (inactive).

Which GI50 (COLO 205) does the source give for [O-][n+]1onc2c1-c1nonc1CC2 here?
The GI50 was 48.5 µM (inactive).

And the GI50 (HCC 2998)?
The GI50 was 77.1 µM (inactive).

What about the GI50 (HCT-116) of the same molecule?
The GI50 was 20.7 µM (inactive).

What about the GI50 (K562) of the same molecule?
The GI50 was 56 µM (inactive).

And the GI50 (MCF7)?
The GI50 was 28.5 µM (inactive).

And the GI50 (MDA-MB-231)?
Its GI50 is 27 µM (inactive).

And the GI50 (MDA-MB-435)?
The GI50 was 39.1 µM (inactive).

What about the GI50 (NCI-H226) of the same molecule?
The GI50 was 36.8 µM (inactive).

And the GI50 (OVCAR-4)?
The GI50 was 30.3 µM (inactive).

What about the GI50 (PC-3) of the same molecule?
Its GI50 is 26.5 µM (inactive).

What about the GI50 (SF-539) of the same molecule?
Its GI50 is 25.3 µM (inactive).

What about the GI50 (SK-MEL-28) of the same molecule?
Its GI50 is 55.2 µM (inactive).

And the GI50 (SN12C)?
The GI50 was 37.5 µM (inactive).

And the GI50 (SR)?
The GI50 was 1.46 µM (inactive).

And the GI50 (T47D)?
Its GI50 is 83 µM (inactive).

What about the GI50 (U-251) of the same molecule?
The GI50 was 31.9 µM (inactive).

And the GI50 (UACC-257)?
The GI50 was 18.5 µM (inactive).

Which results are given for CSCCCNC(=O)c1csc(-c2csc(CCNC(=O)CNC(=O)CNC(=O)CNC(=O)OC(C)(C)C)n2)n1?
GI50 (BT-549): > 100 µM (inactive); GI50 (COLO 205): > 100 µM (inactive); GI50 (HCC 2998): > 100 µM (inactive); GI50 (HCT-116): > 100 µM (inactive); GI50 (HOP-92): > 100 µM (inactive); GI50 (K562): > 100 µM (inactive); GI50 (MCF7): > 100 µM (inactive); GI50 (MDA-MB-231): > 100 µM (inactive); GI50 (MDA-MB-435): > 100 µM (inactive); GI50 (NCI-H226): > 100 µM (inactive); GI50 (OVCAR-4): > 100 µM (inactive); GI50 (PC-3): > 100 µM (inactive); GI50 (SF-539): > 100 µM (inactive); GI50 (SK-MEL-28): > 100 µM (inactive); GI50 (SN12C): > 100 µM (inactive); GI50 (U-251): > 100 µM (inactive); GI50 (UACC-257): > 100 µM (inactive)
